Results taken from PMC4879371, “Antitrypanosomal Activities and Mechanisms of Action of Novel Tetracyclic Iridoids from Morinda lucida Benth” (Antimicrobial Agents and Chemotherapy, 2016).
“Also recorded” adds a separate entry of the source.

What was measured:
[1] = MTT cytotoxicity assay, NB1RGB; format: cell-based, human; settings: human, NB1RGB skin fibroblast cells; NB1RGB normal skin fibroblast, 48 h
Procedure: (§1) The cytotoxicity of the compounds to mammalian cells were determined using four human normal cell lines, namely, NB1RGB (skin fibroblast) and HF-19 (lung fibroblast) obtained from the RIKEN Bio Resource Center Cell Bank (Japan) and Chang Liver and Hs888Lu (lung) obtained from the European Collection of Authenticated Cell Cultures (ECACC). NB1RGB and HF-19 were maintained in minimum essential medium-α (MEM-α). Chang Liver and Hs888Lu were grown in Eagle's minimum essential medium (EMEM) and RPMI 1640, respectively. All of these media were supplemented with 10% fetal bovine serum (FBS) and 1% penicillin-streptomycin and were then incubated at 37°C under 5% CO2 in fully humidified conditions.
(§2) Cytotoxicity was determined using a 3-(4,5-dimethylthiazol-2-yl)-2,5-diphenyltetrazolium bromide (MTT) assay. The cells were treated with molucidin, ML-2-3, or ML-F52 at concentrations of ≤50 μM for 48 h. Cells were plated at a density of 0.5 × 10^4 cells/well into 96-well plates. After 24 h of incubation, cells were treated with various concentrations of each of the purified compounds for 48 h. Then, MTT solution was added to each well, and the cells were incubated for another 4 h. The precipitated MTT-formazan product was dissolved in 0.04 N HCl-isopropanol, and the amount of formazan was measured at a wavelength of 595 nm by a microplate reader (Immuno Mini NJ-2300; Nihon InterMed, Tokyo, Japan). Cytotoxicity was calculated as the percentage of live cells relative to the control culture. The selectivity index (SI) was expressed as the ratio of the IC50 obtained for mammalian cells and the IC50 for trypanosomes.

[2] = system: NB1RGB (skin fibroblast); test: MTT cytotoxicity assay, NB1RGB; format: cell-based, human; settings: IC50 NB1RGB / IC50 trypanosomes
Procedure: as §1, §2

[3] = system: HF-19 (lung fibroblast); test: MTT cytotoxicity assay, HF-19; format: cell-based, human; settings: IC50 HF-19 / IC50 trypanosomes
Procedure: as §1, §2

[4] = MTT cytotoxicity assay, Hs888Lu; format: cell-based, human; settings: human, Hs888Lu lung cells; Hs888Lu normal lung, 48 h
Procedure: as §1, §2

[5] = system: Hs888Lu (lung); test: MTT cytotoxicity assay, Hs888Lu; format: cell-based, human; settings: IC50 Hs888Lu / IC50 trypanosomes
Procedure: as §1, §2

[6] = MTT cytotoxicity assay, Chang Liver; format: cell-based, human; settings: human, Chang Liver cells; Chang liver normal liver, 48 h
Procedure: as §1, §2

[7] = system: Chang Liver; test: MTT cytotoxicity assay, Chang Liver; format: cell-based, human; settings: IC50 Chang liver / IC50 trypanosomes
Procedure: as §1, §2

[8] = system: Trypanosoma parasites (T. brucei brucei); test: FACS Nexin assay for apoptosis in trypanosome parasites; format: cell-based; settings: 24 h; for apoptosis induction: molucidin 6.25 μM, ML-2-3 6.25 μM, ML-F52 0.78 μM; for minimum concentration inducing strong apoptosis: 0 μM to 50 μM tested
Procedure: Seeding and incubation of parasites with compounds were done under the same conditions as those for the alamarBlue assay as described above without addition of the alarmarBlue reagent. In this case, after 24 h of incubation, Guava reagents for Nexin and cell cycle assays were added, and each assay was performed using the Millipore Guava easyCyte 5HT fluorescence-activated cell sorter (FACS) machine according to the manufacturer's instruction. The Nexin assay and subsequent FACS analysis allowed for detection of markers of apoptosis induction by the plant materials. Similarly, the cell cycle assay and subsequent FACS analysis allowed for detection of markers of cell cycle alteration by the plant materials. […]

[9] = system: paraflagellum rod protein subunit 2, PFR-2; test: PFR-2 expression, immunohistochemistry and Western blotting with anti-PFR-2 antibody; format: cell-based, Trypanosoma brucei brucei; settings: for expression of PFR-2 protein: 24 h, 5 μM molucidin, 15 μM ML-2-3, 0.43 μM ML-F52
Procedure: (§3) To investigate the effect of the compounds on parasite morphology and their flagellum function, immunohistochemistry using anti-paraflagellum rod protein anti-PFR-2 antibody ([37]), was performed with molucidin-, ML-2-3-, and ML-F52-treated trypanosome parasites. […] Parasites were then harvested after incubation with or without appropriate concentrations of compounds and were fixed with 4% paraformaldehyde in 8-well chamber slides at room temperature for 5 min. Washing steps were carried out with 500 μl of phosphate-buffered saline (PBS) twice and 0.1% Triton X-100 in PBS (PBST) at room temperature for 5 min each. Blocking reagent (500 μl; 3% bovine serum albumin [BSA] in PBS) was added and incubated for 30 min at room temperature. Primary and secondary antibody incubation with parasites was done for 1 h each, and 4′,6-diamidino-2-phenylindole (DAPI) (5 μg/ml DAPI in PBS) staining was done for 10 min. After the washing steps presented above, the slides were mounted using PermaFluor mounting reagent and were covered with coverslips. The slides were observed under an Olympus fluorescence microscope (Olympus BX53) to detect any phenotypic changes in T. brucei brucei parasites.
Trypanosome parasites were incubated with or without compound in vitro and were lysed with 0.5% NP-40 ([38]). Protein concentration of the lysate was determined using the Bio-Rad protein assay reagents (Bio-Rad, USA). SDS-PAGE was run using Invitrogen NuPAGE 12% Bis-Tris gel. The proteins were blotted on a polyvinylidene difluoride (PVDF) membrane (Immobilon P; Millipore, USA), added with mouse anti-PFR-2 antibody, 1:500 dilution, and incubated at 4°C overnight. The membrane was then incubated with anti-mouse horseradish peroxidase (HRP) antibodies, 1:2,000 dilution, for an hour at room temperature. Chemiluminescence HRP substrates A and B (Immobilon Western; Millipore, USA) were added to the membrane in a ratio of 1:1. Detection was done using the ATTO cooled charge-coupled device (CCD) camera system EzCapture II (ATTO Corporation, Japan).
To investigate the sequence in which the events (apoptosis induction, PFR-2 suppression, and cell cycle alteration) involved in mechanisms of action occur, we examined the time course for the three events using ML-2-3-treated parasites. Trypanosoma brucei parasites were incubated for 0, 0.5, 1.5, 3, 6, and 24 h with 15 μM ML-2-3 and were then subjected to both Nexin assay and Western blot analyses using the PFR-2 antibody. We further investigated the time course of cell cycle alteration using ML-2-3-treated parasites at similar concentrations and incubation periods.

[10] = system: T. brucei brucei parasites; test: Parasite morphology, DAPI / anti-PFR-2 immunohistochemistry; format: cell-based, Trypanosoma brucei brucei; settings: 24 h; 5 μM molucidin, 15 μM ML-2-3, 0.43 μM ML-F52
Procedure: as §3

[11] = system: T. brucei brucei (TC-221 strain); format: in vivo; settings: for survival of mice / death, days postinfection: vehicle control died at day 9
Procedure: Six-week-old BALB/c female mice with an average weight of 20 g were infected with 1 × 10^3 cells of T. brucei brucei (TC-221 strain) and were randomly grouped into four cages containing five mice each. The first 3 groups were treated with 30 mg/kg of body weight of molucidin, ML-2-3, and ML-F52, respectively, 6 h postinfection and continued daily afterward for 5 consecutive days. The last group received physiological saline containing <0.1% of DMSO as a vehicle control. Parasitemia and weight were monitored daily until 20 days postinfection. The experiments were conducted in compliance with the internationally accepted principles for laboratory animal use and care as contained in the Canadian Council on Animal Care guidelines on animal use protocol review.

[12] = system: Plasmodium falciparum; test: Preliminary in vitro anti-Plasmodium activity; format: cell-based; settings: preliminary studies, unpublished data
[13] = 30 mg/kg intraperitoneally, 5 consecutive days

| SMILES | IC50 at 48 h [1] [µM] | SI (selectivity index) [2] | SI (selectivity index) [3] | IC50 at 48 h [4] [µM] | SI (selectivity index) [5] | IC50 at 48 h [6] [µM] | SI (selectivity index) [7] | early-stage apoptotic cells (lower right quadrant) ([8]; 6.25 μM) [%] | late-stage apoptotic cells (upper right quadrant) ([8]; 6.25 μM) [%] | apoptosis induction [8] | expression of PFR-2 protein [9] | effect on nuclei and kinetoplast (DAPI) [10] | effect on parasite cell form [10] | anti-Plasmodium activity in vitro [12] | minimum concentration inducing strong apoptosis [8] [µM] | survival of mice / death, days postinfection [11, 13] [days] | further results |
| --- | --- | --- | --- | --- | --- | --- | --- | --- | --- | --- | --- | --- | --- | --- | --- | --- | --- |
| COC(=O)C1=CO[C@@H]2O[C@H]3/C(=C\c4ccc(O)c(OC)c4)C(=O)O[C@]34C=C[C@H]1[C@H]24 [molucidin] | 7.11 | 5.60 | 11.21 | 9.29 | 7.31 | 9.34 | 7.35 | 1.1 | 0 | no significant induction of apoptosis; also recorded: no significant apoptotic induction | significant expression of PFR-2 | intact kinetoplast but totally disintegrated nuclei | stumpy-like parasites | anti-Plasmodium activities |  |  | toxicity in mice ([11]; mouse, in vivo): severe toxicity |
| COc1cc(/C=C2/C(=O)O[C@]34C=C[C@@H]5C(C(=O)O)=CO[C@H](O[C@@H]23)[C@@H]54)ccc1O [ML-2-3] | > 50 | >13.33 | >13.33 | > 50 | >13.33 | > 50 | >13.33 | 7.8 | 4.4 | significant apoptosis induction | suppression of PFR-2 expression; also recorded: suppressed the expression of PFR-2 proteins | fragmented nuclei with normal kinetoplast | typical short stumpy form | anti-Plasmodium activities | 6.25 | 9 | time of exposure to significant suppression of PFR-2 protein expression ([9]; 15 μM ML-2-3, time course Western blot): ≤ 0.5 h |
| CCOC(=O)C1=CO[C@@H]2O[C@H]3/C(=C\c4ccc(O)c(OC)c4)C(=O)O[C@]34C=C[C@H]1[C@H]24 [ML-F52] | 4.74 | 11.02 | 25.44 | 8.89 | 20.67 | 18.1 | 42.16 |  |  | strongest induction of apoptosis | suppression of PFR-2 expression; also recorded: suppressed the expression of PFR-2 proteins | fragmented nuclei with normal kinetoplast | abnormal cells that had two sets of kinetoplasts and flagellum with fragmented nuclei | anti-Plasmodium activities | 0.78 | 20 | early-stage apoptotic cells (lower right quadrant) ([8]; 0.78 μM): 14.2%; late-stage apoptotic cells (upper right quadrant) ([8]; 0.78 μM): 2.3%; cure for 20 days postinfection [11, 13]: 100% |
